Drawing on patent publication EP0443498A1, “Isoindoline derivatives” (KYORIN PHARMACEUTICAL CO., LTD., priority 1990, dated 1991), this text covers ED50 and MIC for five molecules.

The subject of one test is E. coli ML 4707. Put plainly: Therapeutic effect on the systemic infection of mouse. The test is classed as in vivo, ICR mice. The note with it: Escherichia coli, ML4707, po, 1 h, read-out: ED50 E. coli. Here is the method:
(§1) The infectious bacteria were injected intraperitoneally using five ICR mice per group. one hour later, 5 doses of drugs were administered once orally, respectively, and, from a curve of survival rate of mouse as a function of dose of drug, a dose (EDso) by which 50% of animals escape the death to heal was determined.

Test [1] deals with S. aureus Smith. The description is as above. The test is classed as in vivo, ICR mice. The note with it: Staphylococcus aureus, po, 1 h, read-out: ED50 S. aureus. The method, then:
as §1

The next test concerns E. cloacae IID977. Put plainly: Antibacterial spectra (MIC), method of the Society of Chemotherapy in Japan. The format is cell-based. Particulars: Enterobacter cloacae; E. cloacae IID977, Gram -, 10^6 cells/ml; read-out: Minimum inhibitory concentration for growth.
A further test has as its system P. mirabilis IID994. Described as above. The test is classed as cell-based. Particulars: Proteus mirabilis; P. mirabilis IID994, Gram -, 10^6 cells/ml; read-out: Minimum inhibitory concentration for growth.
In the next test the test system is S. aureus 209P. The test is described as above. The format is cell-based. Particulars: Staphylococcus aureus, Gram +, 10^6 cells/ml, read-out: Minimum inhibitory concentration for growth.
The test system of another test is S. epidermidis IID866. The description is as above. The format is cell-based. Particulars: Staphylococcus epidermidis; S. epidermidis IID866, Gram +, 10^6 cells/ml; read-out: Minimum inhibitory concentration for growth.
The subject of another test is B. thetaiotaomicron 0661. The description is as above. The format is cell-based. Particulars: Bacteroides thetaiotaomicron; B. thetaiotaomicron 0661, Gram -, 10^6 cells/ml; read-out: Minimum inhibitory concentration for growth.
Another test relates to K. pneumoniae KY6445. The description is as above. The test is classed as cell-based. Particulars: Klebsiella pneumoniae; K. pneumoniae KY6445, Gram -, 10^6 cells/ml; read-out: Minimum inhibitory concentration for growth.
A further test relates to C. freundii IID976. Described as above. The test is classed as cell-based. The note with it: Citrobacter freundii; C. freundii IID976, Gram -, 10^6 cells/ml; read-out: Minimum inhibitory concentration for growth.
The subject of another test is A. anitratus IID876. The description is as above. The format is cell-based. Particulars: Acinetobacter calcoaceticus; A. anitratus IID876, Gram -, 10^6 cells/ml; read-out: Minimum inhibitory concentration for growth.
The subject of test [2] is S. aureus Smith. The test is described as above. The format is cell-based. Particulars: Staphylococcus aureus, Gram +, 10^6 cells/ml, read-out: Minimum inhibitory concentration for growth.
A further test concerns S. pneumoniae type III. The test is described as above. Particulars: Streptococcus pneumoniae, Gram +, 10^6 cells/ml, read-out: Minimum inhibitory concentration for growth. The format is cell-based.
For the next test, the system named is S. pyogenes S-8. The test is described as above. The test is classed as cell-based. The note with it: Streptococcus pyogenes, S8; S. pyogenes S-8, Gram +, 10^6 cells/ml; read-out: Minimum inhibitory concentration for growth.
In another test the test system is S. enteritidis IID604. The description is as above. The test is classed as cell-based. Particulars: Salmonella enterica; S. enteritidis IID604, Gram -, 10^6 cells/ml; read-out: Minimum inhibitory concentration for growth.
For a further test, the system named is P. aeruginosa V-1. Described as above. The test is classed as cell-based. The note with it: Pseudomonas aeruginosa, V1; P. aeruginosa V-1, Gram -, 10^6 cells/ml; read-out: Minimum inhibitory concentration for growth.
The subject of the next test is E. faecalis IID682. Described as above. The test is classed as cell-based. The note with it: Enterococcus faecalis; E. faecalis IID682, Gram +, 10^6 cells/ml; read-out: Minimum inhibitory concentration for growth.
Another test deals with S. pneumoniae IID552. The description is as above. The format is cell-based. Particulars: Streptococcus pneumoniae; S. pneumoniae IID552, Gram +, 10^6 cells/ml; read-out: Minimum inhibitory concentration for growth.
In another test the test system is S. pneumoniae S-4288. The test is described as above. The test is classed as cell-based. The note with it: Streptococcus pneumoniae, S4288; S. pneumoniae S-4288, Gram +, 10^6 cells/ml; read-out: Minimum inhibitory concentration for growth.
A further test concerns C. perfringens KYA13123. The experiment in a line: microbe, parasite or virus in culture. Particulars: Clostridium perfringens, KYA13123, read-out: Minimum inhibitory concentration for growth. The format is cell-based.
The next test has as its system P. vulgaris IFO3167. The experiment in a line: Antibacterial spectra (MIC), method of the Society of Chemotherapy in Japan. The test is classed as cell-based. Particulars: Proteus vulgaris; P. vulgaris IFO3167, Gram -, 10^6 cells/ml; read-out: Minimum inhibitory concentration for growth.
Another test relates to S. sonnei IID969. Described as above. The test is classed as cell-based. The note with it: Shigella sonnei; S. sonnei IID969, Gram -, 10^6 cells/ml; read-out: Minimum inhibitory concentration for growth. The method, then: The antibacterial test was performed according to the method designated by Society of Chemotherapy in Japan.
A further test relates to P. aeruginosa IFO12689. Described as above. The test is classed as cell-based. The note with it: Pseudomonas aeruginosa; P. aeruginosa IFO12689, Gram -, 10^6 cells/ml; read-out: Minimum inhibitory concentration for growth.
The test system of a further test is E. coli NIHJ JC-2. The test is described as above. The test is classed as cell-based. The note with it: Escherichia coli, NIHJJC2; E. coli NIHJ JC-2, Gram -, 10^6 cells/ml; read-out: Minimum inhibitory concentration for growth.
For another test, the system named is P. aeruginosa IID1210. The description is as above. The test is classed as cell-based. The note with it: Pseudomonas aeruginosa; P. aeruginosa IID1210, Gram -, 10^6 cells/ml; read-out: Minimum inhibitory concentration for growth.
The test system of the next test is M. morganii IID602. The test is described as above. The format is cell-based. Particulars: Morganella morganii; M. morganii IID602, Gram -, 10^6 cells/ml; read-out: Minimum inhibitory concentration for growth.
The next test has as its system P. maltophilia GIFU2491. The description is as above. The format is cell-based. The note with it: Stenotrophomonas maltophilia; P. maltophilia GIFU2491, Gram -, 10^6 cells/ml; read-out: Minimum inhibitory concentration for growth.
The subject of the next test is S. marcescens IID618. The test is described as above. The format is cell-based. Particulars: Serratia marcescens; S. marcescens IID618, Gram -, 10^6 cells/ml; read-out: Minimum inhibitory concentration for growth.
[3] abbreviates: E. coli ML 4707, 8.8x10^6 CFU/mouse intraperitoneally, drug once orally one hour later, dose at which 50% of ICR mice survive.
Setting [4] is: S. aureus Smith, 4.8x10^6 CFU/mouse intraperitoneally, drug once orally one hour later, dose at which 50% of ICR mice survive.

Counter-ions that a name gives are not always drawn. Like-named read-outs stand apart in the source and are kept apart here.

By ED50 is commonly meant the dose at which the effect has come halfway, by size or by number of responders. As for `O=C(O)c1cn(C2CC2)c2cc(N3CCNCC3)c(F)cc2c1=O` [CPFX, Ciprofloxacin, reference compound], the ED50 in the test with E. coli ML 4707 amounted to 0.49 mg/kg; in the test with S. aureus Smith [1], 20.3 mg/kg.

Take `COc1c(N2C[C@@H](C)[C@H](N)C2)c(F)cc2c(=O)c(C(=O)O)cn(C3CC3)c12` [Example 33, 7-[3(S)-amino-4(R)-methyl-l-pyrrolidinyl]-1-cyclopropyl-6-fluoro-1,4-dihydro-8-methoxy-4-oxo-3-quinolinecarboxylic acid hydrochloride]: the MIC is 0.05 µg/mL in the test with E. cloacae IID977; 0.05 µg/mL in the test on P. mirabilis IID994; 0.025 µg/mL in the test with S. aureus 209P; 0.05 µg/mL in the test with S. epidermidis IID866; 0.2 µg/mL in the test with B. thetaiotaomicron 0661; 0.025 µg/mL with K. pneumoniae KY6445. For the same molecule, the MIC in the test with C. freundii IID976 was 0.05 µg/mL; with A. anitratus IID876, 0.05 µg/mL; in the test with S. aureus Smith [2], 0.025 µg/mL; in the test with S. pneumoniae type III, 0.05 µg/mL; in the test on S. pyogenes S-8 it was 0.05 µg/mL; in the test on S. enteritidis IID604, 0.05 µg/mL. Also, the MIC in the test on P. aeruginosa V-1 was 0.2 µg/mL. The values for the ED50 with E. coli ML 4707 (setting [3]) and in the test with S. aureus Smith [1] (setting [4]) were 0.31 mg/kg and 1.21 mg/kg, respectively.

`COc1c(N2C[C@@H](N)[C@@H](C)C2)c(F)cc2c(=O)c(C(=O)O)cn(C3CC3)c12` [Example 34, 7-[3(S)amino-4(S)-methyl-1-pyrrolidinyl]-1-cyclopropyl-6-fluoro-1,4-dihydro-8-methoxy-4-oxo-3-quinolinecarboxyic acid hydrochloride]: the MIC in the test on E. faecalis IID682 came to 0.2 µg/mL; in the test on P. mirabilis IID994 it was 0.025 µg/mL; in the test on S. aureus 209P, 0.025 µg/mL; in the test on S. pneumoniae IID552, 0.2 µg/mL; in the test with S. epidermidis IID866, 0.05 µg/mL; in the test on K. pneumoniae KY6445, 0.025 µg/mL. The MIC is 0.2 µg/mL in the test on S. pneumoniae S-4288; 0.05 µg/mL with C. freundii IID976; 0.05 µg/mL in the test on A. anitratus IID876; 0.025 µg/mL in the test on S. aureus Smith [2]; 0.05 µg/mL in the test on S. pneumoniae type III; 0.2 µg/mL in the test on C. perfringens KYA13123. For the same molecule, the MIC in the test on S. enteritidis IID604 was determined as 0.05 µg/mL; in the test on P. aeruginosa V-1, 0.2 µg/mL; with P. vulgaris IFO3167, 0.025 µg/mL. In addition, the ED50 in the test with E. coli ML 4707 (setting [3]) was determined as 0.26 mg/kg; with S. aureus Smith [1] (setting [4]), 1.39 mg/kg.

Turning to `COc1c(N2C[C@@H](C)[C@@H](N)C2)c(F)cc2c(=O)c(C(=O)O)cn(C3CC3)c12.Cl` [Example 35, 7-[3(R)-amino-4(R)-methyl-1-pyrrolidinyl]-1-cyclopropyl-6-fluoro-1,4-dihydro-8-methoxy-4-oxo-3-quinolinecarboxylic acid hydrochloride], the MIC in the test with E. faecalis IID682 was determined as 0.2 µg/mL; in the test with P. mirabilis IID994 it was 0.05 µg/mL; in the test on S. sonnei IID969, 0.025 µg/mL; with S. aureus 209P, 0.025 µg/mL; in the test on S. pneumoniae IID552, 0.2 µg/mL; with S. epidermidis IID866, 0.05 µg/mL. For the same molecule, the MIC in the test on K. pneumoniae KY6445 is 0.05 µg/mL; with S. pneumoniae S-4288, 0.2 µg/mL; with A. anitratus IID876 it was 0.05 µg/mL; in the test on S. aureus Smith [2], 0.025 µg/mL; in the test on P. aeruginosa IFO12689, 1.56 µg/mL; in the test on E. coli NIHJ JC-2 it was 0.025 µg/mL. In addition, the MIC in the test on C. perfringens KYA13123 stood at 0.2 µg/mL; in the test with S. pyogenes S-8 it was 0.2 µg/mL; in the test with P. vulgaris IFO3167 it was 0.025 µg/mL; with P. aeruginosa IID1210, 1.56 µg/mL. In addition, the median effective dose (ED50) in the test with E. coli ML 4707 (setting [3]) is 1.11 mg/kg; with S. aureus Smith [1] (setting [4]), 2 mg/kg.

In the case of `COc1c(N2C[C@H](C)[C@@H](N)C2)c(F)cc2c(=O)c(C(=O)O)cn(C3CC3)c12` [Example 36, 7-[3(R)-amino-4(S)-methyl-I-pyrrolidinyl]-I-cyclopropyl-6-fluoro-1-4-dihydro-8-methoxy-4-oxo-3-quinolinecarboxylic acid hydrochloride], the MIC in the test with M. morganii IID602 amounted to 0.2 µg/mL; with E. cloacae IID977, 0.2 µg/mL; in the test on S. sonnei IID969 it was 0.025 µg/mL; in the test on S. aureus 209P, 0.05 µg/mL; with P. maltophilia GIFU2491 it was 0.2 µg/mL; in the test on B. thetaiotaomicron 0661, 1.56 µg/mL. Further, the MIC was 0.05 µg/mL in the test on K. pneumoniae KY6445; 1.56 µg/mL with P. aeruginosa IFO12689; 0.2 µg/mL in the test with S. pneumoniae type III; 0.025 µg/mL with E. coli NIHJ JC-2; 0.2 µg/mL with S. marcescens IID618; 0.2 µg/mL with S. pyogenes S-8. Further, the MIC in the test with P. vulgaris IFO3167 amounted to 0.025 µg/mL; with P. aeruginosa IID1210, 1.56 µg/mL. The ED50 in the test on E. coli ML 4707 (setting [3]) worked out at 2.04 mg/kg; with S. aureus Smith [1] (setting [4]) it was 6.08 mg/kg.
